Data as given in patent publication US6403123B1, “Method for topical treatment of anthralin-responsive dermatological disorders” (priority 2000, dated 2002).

Assays:
Assay type in all cases: in vivo, human
psoriasis [1] = assay: Earlier or concurrent treatment of the psoriasis subjects with other drugs (case histories); settings: person
psoriasis [2] = assay: Topical treatment of psoriasis patients by the method: anthralin formulation, then wax formulation, then talc powder; settings: person
Text: In accordance with the present invention, the anthralin formulation is first topically applied to the involved skin area, or skin lesions, such as psoriatic plaques or eczema, of a patient in need of such treatment. […] The anthralin formulation may be applied by any means which provides a relatively uniform layer of anthralin formulation on the involved area. Suitable means of application include spraying, roll-on, and application using a brush, saturated cotton gauze, pad, sponge-tipped applicator, and the like. As the anthralin formulation penetrates into the lesions or evaporates, any unabsorbed anthralin formulation on the lesion surface can be wiped off with a tissue, paper towel, cloth or the like. Thereafter, a wax formulation is applied to the lesion to cover the anthralin formulation-treated area. The wax formulation may be applied using any application method that allows for applying a relatively uniform layer of the wax formulation. Such application methods include, but are not limited to, spraying, roll-on, and application by brush, cotton gauze, pad, sponge-tipped applicator, and the like. As the vehicle(s) of the wax formulation evaporate, a thin film of wax will be formed to cover the lesion surface of the involved area. […] Finally, a powder, such as talc, may then be optionally applied over the wax film in order to eliminate any remaining anthralin thereby further ensuring that staining of clothing or other objects is avoided. […] The powder may be applied by dusting using a puff or pad, sprinkling, spreading and the like. The method was typically carried out as follows. A liquid anthralin formulation as formulated in Example 1(A) was topically applied to skin lesions once to twice daily by the patient using a saturated cotton pad. As the anthralin penetrated into the lesions and the solvents evaporated, a tissue or paper towel was used to wipe off excess materials from the surface of the lesions. The wax formulation as formulated in Example 2(B) was topically applied to the lesions. […]

[3] = Staining of skin and clothing and skin irritation during the topical anthralin method
Text: As the anthralin formulation penetrates into the lesions or evaporates, any unabsorbed anthralin formulation on the lesion surface can be wiped off with a tissue, paper towel, cloth or the like. Thereafter, a wax formulation is applied to the lesion to cover the anthralin formulation-treated area. The wax formulation may be applied using any application method that allows for applying a relatively uniform layer of the wax formulation. Such application methods include, but are not limited to, spraying, roll-on, and application by brush, cotton gauze, pad, sponge-tipped applicator, and the like. As the vehicle(s) of the wax formulation evaporate, a thin film of wax will be formed to cover the lesion surface of the involved area. There are two advantages to the presence of the wax film: (a) the thin wax film will act as an occlusive backing to drive the penetration of anthralin deeper into the lesions; and (b) the wax film will prevent any trace amounts of anthralin from contacting clothing or other objects.
Finally, a powder, such as talc, may then be optionally applied over the wax film in order to eliminate any remaining anthralin thereby further ensuring that staining of clothing or other objects is avoided. […]

C=C1/C(=C\C=C2/CCC[C@]3(C)[C@@H]([C@H](C)/C=C/[C@@H](O)C4CC4)CC[C@@H]23)C[C@@H](O)C[C@@H]1O [calcipotriene]
response of plaque psoriasis (psoriasis [1]; Example 6, plaque psoriasis for four years, topical treatment): did not improve well | response of generalized small plaque psoriasis (psoriasis [1]; Example 7, psoriasis for seventeen years, topical treatment): did not respond

CN(Cc1cnc2nc(N)nc(N)c2n1)c1ccc(C(=O)N[C@@H](CCC(=O)O)C(=O)O)cc1 [methotrexate]
improvement of lesions (psoriasis [1]; Example 5, generalized plaque psoriasis, intramuscular injections every one to four weeks): approximately 50%

O=C1c2c(O)cccc2Cc2cccc(O)c21 [anthralin, 1,8,9,-anthracenetriol]
improvement of the psoriasis (psoriasis [2]; Example 6, anthralin 0.2% increased to 1% by weight, once daily, maintained over one year): approximately 90% | skin free of psoriasis (psoriasis [2]; Example 7, anthralin 0.3% increased to 0.6% by weight, once daily, after four months): approximately 90% | improvement of psoriatic lesions (psoriasis [2]; Example 8, small plaque psoriasis, 3% anthralin formulation once daily, after four months): approximately 75% | staining of clothes ([3]; Example 10, 0.25% anthralin, wax formulation Example 2(B), fine talc, twice a day for four weeks): no staining of their clothes | skin irritation and staining to the skin and clothing ([3]; typical case, about 0.1% to about 0.2% by weight anthralin, once or twice daily on chronic psoriatic plaques): without skin irritation and staining to the skin and clothing
